What all share (assay type): functional
Assay [1] has as its system Rattus norvegicus. Kind of assay: Cardioprotective activity in adrenaline-induced MI Rattus norvegicus Sprague-Dawley (rat) model assessed as effect on P-duration at 5 mg/kg, po for 15 days challenged with adrenaline on day 14 and day 15 measured after 24 hr post second adrenaline injection by ECG analysis (reference value: 0.01136 +/- 0.0044 sec).
The subject of assay [2] is Rattus norvegicus. The assay can be described thus: Cardioprotective activity in adrenaline-induced MI Rattus norvegicus Sprague-Dawley (rat) model assessed as decrease in QT interval prolongation at 5 mg/kg, po for 15 days challenged with adrenaline on day 14 and day 15 measured after 24 hr post second adrenaline injection by ECG analysis (reference value: 0.08205 +/- 0.0023 sec).

The test system of assay [3] is Rattus norvegicus. The assay can be described thus: Cardioprotective activity in adrenaline-induced MI Rattus norvegicus Sprague-Dawley (rat) model assessed as increase in R-R interval at 5 mg/kg, po for 15 days challenged with adrenaline on day 14 and day 15 measured after 24 hr post second adrenaline injection by ECG analysis (reference value: 0.135 +/- 0.0176 sec).

Assay [4] concerns Rattus norvegicus. Kind of assay: Cardioprotective activity in adrenaline-induced MI Rattus norvegicus Sprague-Dawley (rat) model assessed as decrease in heart rate at 5 mg/kg, po for 15 days challenged with adrenaline on day 14 and day 15 measured after 24 hr post second adrenaline injection (reference value: 422.76 +/- 6.158 bpm).
The test system of assay [5] is Rattus norvegicus. Kind of assay: Cardioprotective activity in adrenaline-induced MI Rattus norvegicus Sprague-Dawley (rat) model assessed as decrease in ST interval at 5 mg/kg, po for 15 days challenged with adrenaline on day 14 and day 15 measured after 24 hr post second adrenaline injection by ECG analysis (reference value: 0.0829 +/- 0.0024 sec).

SMILES strings stand for the structures.

`CCOC(=O)C1=C(C)NC(SC)=NC1c1ccc([N+](=O)[O-])cc1` (stereo not given): the Time is 0.0166 s in assay [1], 0.06664 s in assay [2], 0.1852 s in assay [3] and 0.05879 s in assay [5]. In addition, in assay [4], the Activity stood at 315.766 bpm.
For `COC(=O)C1=C(C)NC(SC)=NC1c1ccc(Cl)cc1` (stereo not given) the same measures were 0.01358 s, 0.03879 s, 0.1533 s, 0.0545 s and 382.03 bpm.
On to `COC(=O)C1=C(C)NC(C)=C(C(=O)OC)C1c1ccccc1[N+](=O)[O-]` [NIFEDIPINE], for which the Time in assay [1] is given as 0.01815 s; in assay [2], 0.06101 s; in assay [3] it was 0.2146 s; in assay [5], 0.0455 s. Besides, the Activity in assay [4] stood at 278.5 bpm.
